# Several values for one entry are separate records, joined by “and”; a condition that tells them apart may be missing. Identical values can stand only once. Like-named read-outs stand apart in the source and are kept apart here.
# What was measured:
# [1] = system: E. faecalis FA2–2; assay: MIC against wild-type E. faecalis FA2-2 (FabI and FabK); format: cell-based, Enterococcus faecalis; details: E. faecalis FA2-2, possesses both FabI and FabK
# Description: (§1) Compounds were twofold serially diluted (100–0.2 μg/mL) across a 96-well plate in 100 μL of media used for the specific organism (Table S4). For anaerobes, plates were incubated anaerobically at 37 °C for 1 h and then inoculated with approximately 10^5 to 10^6 CFU/well. Plates were incubated at 37 °C for up to 48 h, and MICs were read by visual inspection.
# [2] = target: FnFabK (Fusobacterium nucleatum subsp. nucleatum, UniProt Q8RGV3); assay: biochemical
# Chain of FnFabK (Q8RGV3 entry or part of it): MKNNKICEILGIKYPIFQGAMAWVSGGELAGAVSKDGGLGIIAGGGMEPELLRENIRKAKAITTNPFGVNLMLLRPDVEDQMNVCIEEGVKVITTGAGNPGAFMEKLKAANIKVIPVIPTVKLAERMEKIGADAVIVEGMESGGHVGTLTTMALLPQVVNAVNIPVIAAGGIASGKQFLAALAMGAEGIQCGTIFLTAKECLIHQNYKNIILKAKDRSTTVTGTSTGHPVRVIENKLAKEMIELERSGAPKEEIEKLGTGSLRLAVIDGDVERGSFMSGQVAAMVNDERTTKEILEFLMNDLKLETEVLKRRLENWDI
# Description: Incubation lasted for a total of 10 min before the addition of crotonyl-CoA substrate, and the reaction was initiated by the addition of NADH for a final assay volume of 100 μL. The oxidation of NADH to NAD+ was measured by tracking fluorescence (340 nm/460 nm) with a Biotek Synergy H1 microplate reader in 15 s intervals for a total of 10 min to monitor the rate of reaction. The reaction was conducted in Greiner Bio-One 384-well μClear Bottom Polystyrene Microplates. […] Measurements were conducted in triplicate, and IC50’s were calculated via GraphPad Prism 9.1.2 using four-parameter logistic (Hill) curve analysis using equation Y = bottom + (top – bottom)/[1 + 10 (Log IC50 – X) × Hill Slope], where X is the logarithm of the dose and Y is the response. The assay concentrations of the cofactor, NADH, and substrate, crotonyl-CoA, were also determined via GraphPad Prism 9.1.2 using the substrate inhibition model to determine Km(app).
# [3] = system: Actinomyces F0386; assay: MIC, digestive tract panel; format: cell-based; details: Type I FAS
# Description: as §1
# [4] = system: Bacteroides ovatus; assay: MIC, digestive tract panel; format: cell-based; details: ENR FabI/FabK
# Description: as §1
# [5] = system: Bifidobacterium breve; assay: MIC, digestive tract panel; format: cell-based; details: Type I FAS
# Description: as §1
# [6] = system: Clostridium sp. MSTE9; assay: MIC, digestive tract panel; format: cell-based; details: ENR FabK
# Description: as §1
# [7] = system: F. necrophorum 25286; assay: MIC, digestive tract panel; format: cell-based; details: Fusobacterium necrophorum, ENR FabK
# Description: as §1
# [8] = system: F. nucleatum 25586; assay: MIC, digestive tract panel; format: cell-based; details: Fusobacterium nucleatum, ENR FabK
# Description: as §1
# [9] = system: F. periodonticum 2_1_31; assay: MIC, digestive tract panel; format: cell-based; details: ENR FabK
# Description: as §1
# [10] = system: F. periodonticum 33693; assay: MIC, digestive tract panel; format: cell-based; details: ENR FabK
# Description: as §1
# [11] = system: F. vincentii 49256; assay: MIC, digestive tract panel; format: cell-based; details: ENR FabK
# Description: as §1
# [12] = system: P. gingivalis 33277; assay: MIC, digestive tract panel; format: cell-based; details: Porphyromonas gingivalis, ENR FabK
# Description: as §1
# [13] = system: P. gingivalis F0185; assay: MIC, digestive tract panel; format: cell-based; details: Porphyromonas gingivalis, ENR FabK
# Description: as §1
# [14] = system: P. gingivalis F0566; assay: MIC, digestive tract panel; format: cell-based; details: Porphyromonas gingivalis, ENR FabK
# Description: as §1
# [15] = system: P. gingivalis F0569; assay: MIC, digestive tract panel; format: cell-based; details: Porphyromonas gingivalis
# Description: as §1
# [16] = system: Prevotella denticola; assay: MIC, digestive tract panel; format: cell-based; details: ENR FabI
# Description: as §1
# [17] = system: Propionibacterium acidifaciens; assay: MIC, digestive tract panel; format: cell-based; details: ENR FabI
# Description: as §1
# [18] = system: Streptococcus downei; assay: MIC, digestive tract panel; format: cell-based; details: ENR FabK
# Description: as §1
# [19] = system: Streptococcus mitis; assay: MIC, digestive tract panel; format: cell-based; details: ENR FabK
# Description: as §1
# [20] = system: Streptococcus pyogenes; assay: MIC, digestive tract panel; format: cell-based; details: ENR FabK
# Description: as §1
# [21] = system: Streptococcus salivarius; assay: MIC, digestive tract panel; format: cell-based; details: ENR FabK
# Description: as §1
# [22] = system: Streptococcus sanguinis; assay: MIC, digestive tract panel; format: cell-based; details: ENR FabK
# Description: as §1
# [23] = system: Streptococcus sp. CMW7705B; assay: MIC, digestive tract panel; format: cell-based; details: ENR FabK
# Description: as §1
# [24] = system: Streptococcus sp. SPAR10; assay: MIC, digestive tract panel; format: cell-based; details: ENR FabK
# Description: as §1
# [25] = system: Streptococci; assay: MIC, all tested Streptococci; format: cell-based; details: text summary of Table 4; read-out: MICs against all tested Streptococci
# Description: as §1
# [26] = Cytotoxicity against Vero cells (resazurin viability); format: cell-based; details: monkey, Vero epithelial cells, maximum tested concentration 100 μg/mL
# Description: This was done as described[36] using colorectal carcinoma HCT116 and Vero epithelial cells cultured at 37 °C in 5% CO2 in Dulbecco’s modified Eagle’s medium (DMEM) with 4.5 g/L glucose and L-glutamine. The medium was supplemented with 10% v/v FetalGro (Rocky Mountain Biologicals). Approximately 25,000/well were aliquoted into black 96-well plates (Greiner Bio-One) and incubated overnight, before being resuspended in DMEM supplemented with 20% Gibco KnockOut Serum Replacement (Thermo Fisher Scientific). Compounds (100–1.6 μg/mL) were then added to the cells and incubated for 24 h at 37 °C and 5% CO2. Cell viability was analyzed using resazurin as described.[36]
# [27] = system: S. salivarius HM-121; assay: Growth in FAS-II inhibitor with or without exogenous fatty acids; format: cell-based, Streptococcus salivarius; details: fatty acid mixture of Table S2
# Description: To plates containing twofold serial dilutions of compounds, exponential phase cultures were added to a final OD600nm of 0.1. Plates containing F. nucleatum in Columbia broth were incubated at 37 °C inside of a Tecan Infinite 200 Pro, which was inside an anaerobic chamber; growth kinetics for Streptococcus spp. in brain heart infusion broth were done aerobically in the same Tecan instrument.
# [28] = system: CdFabK; design: method as in PMID 37224699; details: previously reported, cited from earlier work
structure (smiles),measurement,setting,value
"CS(=O)(=O)c1ccc2nc(NC(=O)NCc3nc(-c4ccc(Br)cc4)c[nH]3)sc2c1 [Compound 681, 1-((4-(4-bromophenyl)-1H-imidazole-2-yl)methyl)-3-(6-(methylsulfonyl)benzo[d]thiazol-2-yl)urea]",MIC Ef wild-type,[1],100 µg/mL and >100 µg/mL
same,MIC,"[1]; Enterococcus faecalis, read-out: MIC Ef wild-type",> 100 µg/mL
same,IC50,"[2]; IC50 against FnFabK, equivalent concentration, conversion of the μM value",1.97 µM
same,Hill coefficient (FnFabK inhibition),[2]; four-parameter logistic fit,1.01
same,MIC,[3],> 100 µg/mL
same,MIC,[4],>100 µg/mL
same,MIC,[4]; read-out: MIC,> 100 µg/mL
same,MIC,[5],>100 µg/mL
same,MIC,[5]; read-out: MIC,> 100 µg/mL
same,MIC,[6],> 100 µg/mL
same,MIC,[7],6.3 to 12.5 µg/mL
same,MIC,[8],0.8 µg/mL
same,MIC,[9],0.8 µg/mL
same,MIC,[10],0.8 µg/mL
same,MIC,[11],1.6 µg/mL
same,MIC,[12],> 100 µg/mL
same,MIC,[13],6.3 µg/mL
same,MIC,[14],3.1 µg/mL
same,MIC,[15],> 100 µg/mL
same,MIC,[16],> 100 µg/mL
same,MIC,[17],6.3 µg/mL
same,MIC,[18],< 1.6 µg/mL
same,MIC,[19],< 1.6 µg/mL
same,MIC,[20],< 1.6 µg/mL
same,MIC,[21],< 1.6 µg/mL
same,MIC,[22],< 1.6 µg/mL
same,MIC,[23],< 1.6 µg/mL
same,MIC,[24],< 1.6 µg/mL
same,MIC,[25],< 1.6 µg/mL
same,IC50 at 24 h,[26],> 100 µg/mL
same,Increase in biomass (OD600nm) in the presence of inhibitor and exogenous fatty acids,[27],twofold
same,"IC50 against CdFabK, equivalent concentration",[28],0.2 µg/mL
same,IC50,[28]; read-out: IC50 against CdFabK,0.45 µM
